Patent US9434725B2, “5-azaindazole compounds and methods of use” (priority 2012, dated 2016)

Assays:
Type in all cases: biochemical
PIM1 = PIM1 (Homo sapiens (Human), UniProt P11309); experiment: biochemical; settings: 10 μM ATP, 90 min, room temperature; read-out: PIM1 LC3K (KI)
Description: A fluorescent-labeled Pim-specific peptide substrate, was custom synthesized by American Peptide Company (Sunnyvale, Calif.). Reaction Buffer contained 10 mM HEPES, pH 7.2, 10 mM MgCl2, 0.01% Tween 20, 2 mM DTT. Termination Buffer contained 190 mM HEPES, pH 7.2, 0.015% Brij-35, 0.2% Coating Reagent 3 (Caliper Life Sciences, Hopkinton, Mass.), 20 mM EDTA. Separation Buffer contained 100 mM HEPES, pH 7.2, 0.015% Brij-35, 0.1% Coating Reagent 3, 1:200 Coating Reagent 8 (Caliper Life Sciences, Hopkinton, Mass.), 10 mM EDTA and 5% DMSO.
PIM reactions were carried out in a final volume of 10 μL per well in a 384-well plate. […] After 90 minutes of incubation at room temperature, the phosphorylation reaction was stopped by the addition of 10 μL Termination Buffer. The product and substrate in each independent reaction were separated on a 12-sipper microfluidic chip (Caliper Life Sciences, Hopkinton, Mass.) run on a Caliper LC3000® (Caliper Life Sciences, Hopkinton, Mass.). The separation of product and substrate was optimized by choosing voltages and pressure using Caliper's Optimizer software (Hopkinton, Mass.). […] Substrate conversion was calculated from the electropherogram using HTS Well Analyzer software (Caliper Life Sciences, Hopkinton, Mass.). Ki values for the test compound were calculated.

PIM2 = PIM2 (Homo sapiens (Human), UniProt Q9P1W9); experiment: Pim kinase binding activity, Caliper LC3000 microfluidic peptide phosphorylation assay, PIM2; settings: 10 μM ATP, 90 min, room temperature; read-out: PIM2 LC3K (KI)
Summary of the method: (§1)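 Read-out is microfluidic electrophoretic separation of phosphorylated from unphosphorylated fluorescent Pim peptide, with Ki calculated from conversion. Reactions ran 90 min at room temperature in HEPES pH 7.2 containing MgCl2, Tween 20 and DTT, ended by EDTA-containing buffer.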

PIM3 = PIM3 (Homo sapiens (Human), UniProt Q86V86); experiment: Pim kinase binding activity, Caliper LC3000 microfluidic peptide phosphorylation assay, PIM3; settings: 10 μM ATP, 90 min, room temperature; read-out: PIM3 LC3K (KI)
Summary of the method: as §1

PIM1, sequence (P11309 whole entry): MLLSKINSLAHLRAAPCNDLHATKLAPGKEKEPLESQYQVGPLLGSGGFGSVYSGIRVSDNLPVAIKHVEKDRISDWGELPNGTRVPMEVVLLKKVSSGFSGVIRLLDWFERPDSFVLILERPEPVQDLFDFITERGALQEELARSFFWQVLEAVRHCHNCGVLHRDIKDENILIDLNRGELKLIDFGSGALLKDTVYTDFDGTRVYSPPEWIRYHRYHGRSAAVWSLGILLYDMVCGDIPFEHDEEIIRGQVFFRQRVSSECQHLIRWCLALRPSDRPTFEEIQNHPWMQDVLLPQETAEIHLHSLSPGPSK
PIM2, sequence (Q9P1W9 whole entry): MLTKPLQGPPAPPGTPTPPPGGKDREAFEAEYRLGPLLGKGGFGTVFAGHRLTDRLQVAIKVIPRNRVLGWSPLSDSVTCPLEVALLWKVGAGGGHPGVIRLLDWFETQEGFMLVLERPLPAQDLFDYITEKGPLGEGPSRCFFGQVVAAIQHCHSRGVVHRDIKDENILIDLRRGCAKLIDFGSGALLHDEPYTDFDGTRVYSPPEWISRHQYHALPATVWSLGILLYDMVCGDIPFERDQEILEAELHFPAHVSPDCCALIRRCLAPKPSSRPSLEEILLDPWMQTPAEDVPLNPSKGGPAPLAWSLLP

| SMILES | Ki (PIM1) | Ki (PIM2) | Ki (PIM3) |
| --- | --- | --- | --- |
| c1cc(N2CCCNCC2)nc(-n2ncc3cnc(-c4cnn(CC5CC5)c4)cc32)c1 [Compound 161, 1-(6-(1,4-Diazepan-1-yl)pyridin-2-yl)-6-(1-(cyclopropylmethyl)-1H-pyrazol-4-yl)-1H-pyrazolo[4,3-c]pyridine] | 1.86 nM | 18.8 nM | 2.19 nM |
| NC1CN(c2cccc(-n3ncc4cnc(-c5cnn(CC(F)(F)F)c5)cc43)n2)C1 [Compound 258, 1-(6-(6-(1-(2,2,2-Trifluoroethyl)-1H-pyrazol-4-yl)-1H-pyrazolo[4,3-c]pyridin-1-yl)pyridin-2-yl)azetidin-3-amine] | 0.514 nM | 8.18 nM | 1.14 nM |
| C[C@H]1CN(c2cccc(-n3ncc4cnc(-c5cncc(C6COC6)c5)cc43)n2)CCN1 [Compound 113, (S)-1-(6-(3-methylpiperazin-1-yl)pyridin-2-yl)-6-(5-(oxetan-3-yl)pyridin-3-yl)-1H-pyrazolo[4,3-c]pyridine] | 0.107 nM | 10.1 nM | 0.186 nM |
| CCn1cc(-c2cc3c(cn2)cnn3-c2cccc(N3CCCC(N)CC3)n2)cn1 (stereo not drawn) [Compound 140, 1-(6-(6-(1-ethyl-1H-pyrazol-4-yl)-1H-pyrazolo[4,3-c]pyridin-1-yl)pyridin-2-yl)azepan-4-amine] | 1.04 nM | 13.4 nM | 0.454 nM |
| CCn1cc(-c2cc3c(cn2)cnn3-c2cccc(N3CCC(N)CC3)n2)cn1 [Compound 132, 1-(6-(6-(1-ethyl-1H-pyrazol-4-yl)-1H-pyrazolo[4,3-c]pyridin-1-yl)pyridin-2-yl)piperidin-4-amine] | 1.56 nM | 19.3 nM | 0.87 nM |
| Cc1cnc(O)c(-c2cc3c(cn2)cnn3-c2cncc(N3CCCNCC3)n2)c1 [Compound 164, 3-(1-(6-(1,4-diazepan-1-yl)pyrazin-2-yl)-1H-pyrazolo[4,3-c]pyridin-6-yl)-5-methylpyridin-2-ol] | 50.2 nM | 527 nM | 14.8 nM |
| Cc1cncc(-c2cc3c(cn2)cnn3-c2cnc(C3CC3)c(N3CCC[C@H](N)C3)n2)n1 [Compound 238, (3S)-1-[3-cyclopropyl-6-[6-(6-methylpyrazin-2-yl)pyrazolo[4,3-c]pyridin-1-yl]pyrazin-2-yl]piperidin-3-amine] | 0.026 nM | 0.257 nM | 0.032 nM |
| CC(C)(C)c1cncc(-c2cc3c(cn2)cnn3-c2cccc(N3CCNCC3)n2)n1 [Compound 170, 6-(6-tert-butylpyrazin-2-yl)-1-(6-piperazin-1-yl-2-pyridyl)pyrazolo[4,3-c]pyridine] | 20.5 nM | 91.2 nM | 8.02 nM |
| COc1ccc(-n2ncc3cnc(-c4cnn(CC(F)(F)F)c4)cc32)nc1N1CCNC[C@H](O)C1 [Compound 237, (S)-1-(3-Methoxy-6-(6-(1-(2,2,2-trifluoroethyl)-1H-pyrazol-4-yl)-1H-pyrazolo-[4,3-c]pyridin-1-yl)pyridin-2-yl)-1,4-diazepan-6-ol] | 0.31 nM | 10.1 nM | 0.587 nM |
| OC1CNCCN(c2cccc(-n3ncc4cnc(-c5cncc(C6COC6)c5)cc43)n2)C1 (stereo not drawn) [Compound 116, 1-(6-(6-(5-(oxetan-3-yl)pyridin-3-yl)-1H-pyrazolo[4,3-c]pyridin-1-yl)pyridin-2-yl)-1,4-diazepan-6-ol] | 0.294 nM | 27.6 nM | 0.405 nM |
| C[C@@]1(O)CNCCN(c2cccc(-n3ncc4cnc(-c5cnn(CC(F)(F)F)c5)cc43)n2)C1 [Compound 249, (R)-6-Methyl-1-(6-(6-(1-(2,2,2-trifluoroethyl)-1H-pyrazol-4-yl)-1H-pyrazolo[4,3-c]-pyridin-1-yl)pyridin-2-yl)-1,4-diazepan-6-ol] | 2.16 nM | 16.8 nM | 3.09 nM |
| c1cc(N2CCCNCC2)nc(-n2ncc3cnc(-c4cnn(CC5COC5)c4)cc32)c1 [Compound 158, 1-(6-(1,4-Diazepan-1-yl)pyridin-2-yl)-6-(1-(oxetan-3-ylmethyl)-1H-pyrazol-4-yl)-1H-pyrazolo[4,3-c]pyridine] | 287 nM | 2900 nM | 284 nM |
| Cc1cncc(-c2cc3c(cn2)cnn3-c2cccc(C3(O)CCCNC3)n2)n1 (stereo not drawn) [Compound 288, 3-(6-(6-(6-methylpyrazin-2-yl)-1H-pyrazolo[4,3-c]pyridin-1-yl)pyridin-2-yl)piperidin-3-ol] | 0.918 nM | 5.56 nM | 0.564 nM |
| Cn1cc(-c2cc3c(cn2)cnn3-c2cccc(N3CC(CN)C3)n2)cn1 [Compound 256, (1-(6-(6-(1-Methyl-1H-pyrazol-4-yl)-1H-pyrazolo[4,3-c]pyridin-1-yl)pyridin-2-yl)azetidin-3-yl)methanamine] | 5.58 nM | 83.2 nM | 2.02 nM |
| Cn1cc(-c2cc3c(cn2)cnn3-c2cccc(C3CCCNCC3)n2)cn1 (stereo not drawn) [Compound 235, 1-(6-(azepan-4-yl)pyridin-2-yl)-6-(1-methyl-1H-pyrazol-4-yl)-1H-pyrazolo[4,3-c]pyridine] | 1.55 nM | 16.5 nM | 0.806 nM |
| CCn1cc(-c2cc3c(cn2)cnn3-c2cccc(N3CCC[C@@H](N)C3)n2)cn1 [Compound 134, (R)-1-(6-(6-(1-ethyl-1H-pyrazol-4-yl)-1H-pyrazolo[4,3-c]pyridin-1-yl)pyridin-2-yl)piperidin-3-amine] | 0.951 nM | 10.8 nM | 0.473 nM |
| CCn1cc(-c2cc3c(cn2)cnn3-c2cncc(N3CCCNCC3)n2)cn1 [Compound 163, 1-(6-(1,4-diazepan-1-yl)pyrazin-2-yl)-6-(1-ethyl-1H-pyrazol-4-yl)-1H-pyrazolo[4,3-c]pyridine] | 1.63 nM | 26.6 nM | 2.96 nM |
| FC(F)(F)Cn1cc(-c2cc3c(cn2)cnn3-c2cccc(N3CC4(CCCCN4)C3)n2)cn1 [Compound 269, 1-(6-(2,5-Diazaspiro[3.5]nonan-2-yl)pyridin-2-yl)-6-(1-(2,2,2-trifluoroethyl)-1H-pyrazol-4-yl)-1H-pyrazolo[4,3-c]pyridine] | 15.7 nM | 194 nM | 27 nM |
| Cn1cc(-c2cc3c(cn2)cnn3-c2cn(C)c(=O)c(N3CCNCC(O)C3)n2)cn1 (stereo not drawn) [Compound 254, 3-(6-Hydroxy-1,4-diazepan-1-yl)-1-methyl-5-(6-(1-methyl-1H-pyrazol-4-yl)-1H-pyrazolo[4,3-c]pyridin-1-yl)pyrazin-2(1H)-one] | 30.6 nM | 718 nM | 6.24 nM |
| Cc1cncc(-c2cc3c(cn2)cnn3-c2ccc(C(F)(F)F)c(N3CCNCC(O)C3)n2)n1 (stereo not drawn) [Compound 219, 1-(6-(6-(6-methylpyrazin-2-yl)-1H-pyrazolo[4,3-c]pyridin-1-yl)-3-(trifluoromethyl)pyridin-2-yl)-1,4-diazepan-6-ol] | 0.433 nM | 12.5 nM | 0.265 nM |
| Cc1cncc(-c2cc3c(cn2)cnn3-c2cccc(N3CCC(O)C(O)C3)n2)n1 (stereo not drawn) [Compound 312, 1-(6-(6-(6-methylpyrazin-2-yl)-1H-pyrazolo[4,3-c]pyridin-1-yl)pyridin-2-yl)piperidine-3,4-diol] | 0.644 nM | 3.58 nM | 0.481 nM |
| Cc1cncc(-c2cc3c(cn2)cnn3-c2cn(C)c(=O)c(N3CCC[C@H](N)C3)n2)n1 [Compound 241, (S)-3-(3-aminopiperidin-1-yl)-1-methyl-5-(6-(6-methylpyrazin-2-yl)-1H-pyrazolo[4,3-c]pyridin-1-yl)pyrazin-2(1H)-one] | 3.53 nM | 45.5 nM | 0.762 nM |
| Cn1cc(-c2cc3c(cn2)cnn3-c2cccc(C3(O)CCCNCC3)n2)cn1 (stereo not drawn) [Compound 230, 4-(6-(6-(1-Methyl-1H-pyrazol-4-yl)-1H-pyrazolo[4,3-c]pyridin-1-yl)pyridin-2-yl)azepan-4-ol] | 5.05 nM | 63.3 nM | 4.32 nM |
| Cn1ncc(-c2cc3c(cn2)cnn3-c2ccccc2F)c1Cl [Compound 309, 6-(5-chloro-1-methyl-1H-pyrazol-4-yl)-1-(2-fluorophenyl)-1H-pyrazolo[4,3-c]pyridine] | 487 nM | 2200 nM | 944 nM |
| c1cc(N2CCCNCC2)nc(-n2ncc3cnc(-c4cncnc4)cc32)c1 [Compound 175, 1-(6-(1,4-Diazepan-1-yl)pyridin-2-yl)-6-(pyrimidin-5-yl)-1H-pyrazolo[4,3-c]pyridine] | 11.3 nM | 196 nM | 6.72 nM |
| OC1CNCCN(c2cccc(-n3ncc4cnc(-c5cncc(C6CC6)c5)cc43)n2)C1 (stereo not drawn) [Compound 115, 1-(6-(6-(5-cyclopropylpyridin-3-yl)-1H-pyrazolo[4,3-c]pyridin-1-yl)pyridin-2-yl)-1,4-diazepan-6-ol] | 0.155 nM | 14.9 nM | 0.306 nM |
